# From ChEMBL document CHEMBL1201862, “PubChem BioAssay data set” (2004)
# Calls of active or inactive are those of the source.
# How the values were obtained:
# Format in all cases: functional
# [1] = molecular target: T1, Corticotropin-releasing factor receptor 2/Corticotropin-releasing factor-binding protein (Homo sapiens, UniProt P24387+Q13324); assay: Dose Response confirmation of uHTS hits for small molecule antagonists of the CRF-binding protein and CRF-R2 receptor complex.; details: read-out: IC50_Mean
# T1 sequence (Q13324 whole entry): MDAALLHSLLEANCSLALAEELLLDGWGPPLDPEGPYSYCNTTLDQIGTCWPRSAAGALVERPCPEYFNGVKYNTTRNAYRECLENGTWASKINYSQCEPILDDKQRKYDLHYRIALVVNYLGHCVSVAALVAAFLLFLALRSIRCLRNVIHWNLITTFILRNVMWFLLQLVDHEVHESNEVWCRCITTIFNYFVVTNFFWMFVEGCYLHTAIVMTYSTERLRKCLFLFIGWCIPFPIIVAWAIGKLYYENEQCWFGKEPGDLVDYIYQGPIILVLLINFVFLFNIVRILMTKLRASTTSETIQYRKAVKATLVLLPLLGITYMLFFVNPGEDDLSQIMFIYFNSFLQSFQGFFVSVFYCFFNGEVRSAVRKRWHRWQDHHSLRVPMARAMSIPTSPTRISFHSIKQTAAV
# T1 sequence (P24387 whole entry): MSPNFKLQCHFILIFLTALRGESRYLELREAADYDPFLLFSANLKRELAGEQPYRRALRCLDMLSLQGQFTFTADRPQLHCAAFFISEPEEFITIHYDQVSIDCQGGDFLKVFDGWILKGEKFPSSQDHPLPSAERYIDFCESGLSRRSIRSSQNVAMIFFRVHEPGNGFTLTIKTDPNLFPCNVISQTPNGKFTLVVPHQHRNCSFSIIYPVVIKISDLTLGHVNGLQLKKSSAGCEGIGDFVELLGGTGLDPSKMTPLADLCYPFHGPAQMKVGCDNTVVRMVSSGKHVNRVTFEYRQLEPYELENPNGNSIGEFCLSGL
# [2] = molecular target: T1, Corticotropin-releasing factor receptor 2/Corticotropin-releasing factor-binding protein; assay: activators of CRF receptor 2 with binding protein – uHTS hits, confirmation (AID 602473); details: read-out: EC50_Mean
# [3] = Luminescence Cell-Based Dose Response HTS to Identify Activators of Luciferase Translation or Activity in H4 […] Cells. [Related pubchem assays: 1829 (Project Summary), 1814 (Primary HTS)]
# H4 = assay: Luminescence Cell-Based Dose Response HTS to Identify Activators of 5'UTR Stem-Loop Driven Prion Protein mRNA Translation in H4 Neuroglioblastoma Cells. [Related pubchem assays: 1829 (Project Summary), 1814 (Primary HTS)]; details: Homo sapiens
# [4] = molecular target: T2, Heat shock factor protein 1 (Mus musculus, UniProt P38532); assay: inhibition of MG132-induced HSE-luciferase signal, confirmation, cell-based, NIH3T3, luminescence, dose retest (AID 2382);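 also: NIH3T3 fibroblasts with HSF1-driven luciferase reporter stressed by proteasome inhibitor MG132; luminescence from HSF1-driven luciferase expression after 8 hours of MG132 stress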
# T2 sequence (P38532 whole entry): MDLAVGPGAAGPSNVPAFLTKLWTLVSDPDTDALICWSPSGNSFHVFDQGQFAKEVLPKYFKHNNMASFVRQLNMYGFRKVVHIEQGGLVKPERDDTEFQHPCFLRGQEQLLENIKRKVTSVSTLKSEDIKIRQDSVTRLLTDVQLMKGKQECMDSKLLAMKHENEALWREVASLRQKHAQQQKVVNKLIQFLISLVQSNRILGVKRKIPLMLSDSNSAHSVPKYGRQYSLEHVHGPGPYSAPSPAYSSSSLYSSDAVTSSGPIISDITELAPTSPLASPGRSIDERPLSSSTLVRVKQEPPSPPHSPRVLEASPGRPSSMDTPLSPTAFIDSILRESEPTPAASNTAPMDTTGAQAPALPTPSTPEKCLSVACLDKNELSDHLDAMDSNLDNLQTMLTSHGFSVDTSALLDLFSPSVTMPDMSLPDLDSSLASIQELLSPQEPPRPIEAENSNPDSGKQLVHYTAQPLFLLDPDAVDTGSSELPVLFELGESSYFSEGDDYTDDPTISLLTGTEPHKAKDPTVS
# Caspase-3 = molecular target: T3, Caspase-3 (Homo sapiens, UniProt P42574);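 also: Dose-response selectivity test against caspase-3 for candidate inhibitors of sentrin-specific proteases (SENPs)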
# T3 sequence (P42574 whole entry): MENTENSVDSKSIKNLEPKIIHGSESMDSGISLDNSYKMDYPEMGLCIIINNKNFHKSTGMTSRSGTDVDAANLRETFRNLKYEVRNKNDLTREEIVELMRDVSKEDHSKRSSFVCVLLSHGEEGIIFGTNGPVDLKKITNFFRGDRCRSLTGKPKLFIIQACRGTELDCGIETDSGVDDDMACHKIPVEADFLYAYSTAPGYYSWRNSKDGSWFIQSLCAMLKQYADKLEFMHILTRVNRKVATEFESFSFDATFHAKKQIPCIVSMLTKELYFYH
# [5] = molecular target: T4, Sentrin-specific protease 7 (Homo sapiens, UniProt Q9BQF6);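 also: Luminescence-based dose-response confirmation of ultra-high-throughput screening hits, measuring inhibition of SENP7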
# T4 sequence (Q9BQF6 whole entry): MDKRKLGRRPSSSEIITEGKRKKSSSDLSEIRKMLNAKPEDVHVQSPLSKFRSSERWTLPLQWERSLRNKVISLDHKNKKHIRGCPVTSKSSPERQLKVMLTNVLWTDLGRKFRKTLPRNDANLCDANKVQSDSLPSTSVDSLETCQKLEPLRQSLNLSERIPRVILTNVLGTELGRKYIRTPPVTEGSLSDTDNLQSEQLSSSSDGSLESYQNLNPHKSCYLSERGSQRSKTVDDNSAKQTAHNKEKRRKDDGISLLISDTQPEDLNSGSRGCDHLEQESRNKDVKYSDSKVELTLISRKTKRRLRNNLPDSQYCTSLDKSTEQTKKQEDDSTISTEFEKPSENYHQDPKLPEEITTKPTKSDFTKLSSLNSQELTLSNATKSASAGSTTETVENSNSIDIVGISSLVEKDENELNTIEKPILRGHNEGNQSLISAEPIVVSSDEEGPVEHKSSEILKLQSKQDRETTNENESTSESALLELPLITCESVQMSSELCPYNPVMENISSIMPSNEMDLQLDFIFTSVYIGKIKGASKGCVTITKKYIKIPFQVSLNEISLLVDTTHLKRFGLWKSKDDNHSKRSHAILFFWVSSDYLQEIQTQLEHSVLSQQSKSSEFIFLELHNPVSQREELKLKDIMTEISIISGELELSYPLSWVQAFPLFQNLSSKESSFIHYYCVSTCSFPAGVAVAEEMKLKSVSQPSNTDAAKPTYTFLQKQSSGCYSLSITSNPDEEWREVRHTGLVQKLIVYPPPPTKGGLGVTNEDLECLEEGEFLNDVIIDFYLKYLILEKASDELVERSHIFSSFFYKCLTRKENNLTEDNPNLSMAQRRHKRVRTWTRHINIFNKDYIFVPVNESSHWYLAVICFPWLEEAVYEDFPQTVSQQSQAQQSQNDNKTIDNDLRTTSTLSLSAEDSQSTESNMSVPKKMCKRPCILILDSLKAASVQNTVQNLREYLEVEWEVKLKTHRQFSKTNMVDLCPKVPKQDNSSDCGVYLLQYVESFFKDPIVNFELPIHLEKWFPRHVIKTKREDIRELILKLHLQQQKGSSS
# [6] = molecular target: T5, Sentrin-specific protease 6 (Homo sapiens, UniProt Q9GZR1);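 also: Luminescence-based dose-response confirmatory assay of SENP6 inhibition, following up an ultra-high-throughput screen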
# T5 sequence (Q9GZR1 whole entry): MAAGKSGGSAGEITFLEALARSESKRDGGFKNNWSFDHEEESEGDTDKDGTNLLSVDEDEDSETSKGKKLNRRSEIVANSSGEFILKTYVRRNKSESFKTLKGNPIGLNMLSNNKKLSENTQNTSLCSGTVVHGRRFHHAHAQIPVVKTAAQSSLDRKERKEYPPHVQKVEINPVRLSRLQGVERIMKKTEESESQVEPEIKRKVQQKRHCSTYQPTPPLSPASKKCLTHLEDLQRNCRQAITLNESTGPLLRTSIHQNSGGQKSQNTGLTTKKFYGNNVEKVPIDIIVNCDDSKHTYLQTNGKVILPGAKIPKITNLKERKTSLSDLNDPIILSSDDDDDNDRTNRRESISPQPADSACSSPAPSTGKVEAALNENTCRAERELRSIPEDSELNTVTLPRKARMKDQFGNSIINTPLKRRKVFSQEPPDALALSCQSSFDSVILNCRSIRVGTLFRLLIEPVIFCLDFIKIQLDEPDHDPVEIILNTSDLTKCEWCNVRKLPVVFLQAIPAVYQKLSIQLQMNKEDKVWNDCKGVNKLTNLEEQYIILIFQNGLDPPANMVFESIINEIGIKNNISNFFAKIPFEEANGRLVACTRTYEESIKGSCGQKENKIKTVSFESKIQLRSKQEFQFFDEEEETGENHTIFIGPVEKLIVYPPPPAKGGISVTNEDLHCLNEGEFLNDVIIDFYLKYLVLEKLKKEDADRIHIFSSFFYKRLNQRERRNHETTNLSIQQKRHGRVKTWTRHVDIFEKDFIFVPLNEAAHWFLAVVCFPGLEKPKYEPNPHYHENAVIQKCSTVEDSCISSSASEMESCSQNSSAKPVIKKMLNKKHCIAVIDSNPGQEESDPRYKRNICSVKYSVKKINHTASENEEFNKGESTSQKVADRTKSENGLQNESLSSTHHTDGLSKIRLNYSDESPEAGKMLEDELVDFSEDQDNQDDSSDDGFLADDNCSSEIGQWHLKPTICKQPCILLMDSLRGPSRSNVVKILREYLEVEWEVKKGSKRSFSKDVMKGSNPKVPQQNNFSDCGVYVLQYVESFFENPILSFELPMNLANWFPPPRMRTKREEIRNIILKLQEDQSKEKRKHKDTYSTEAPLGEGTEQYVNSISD
# [7] = molecular target: T6, Sentrin-specific protease 8 (Homo sapiens, UniProt Q96LD8);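 also: luminescence read-out of SENP8 inhibition, dose-response confirmation following an ultra-high-throughput screen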
# T6 sequence (Q96LD8 whole entry): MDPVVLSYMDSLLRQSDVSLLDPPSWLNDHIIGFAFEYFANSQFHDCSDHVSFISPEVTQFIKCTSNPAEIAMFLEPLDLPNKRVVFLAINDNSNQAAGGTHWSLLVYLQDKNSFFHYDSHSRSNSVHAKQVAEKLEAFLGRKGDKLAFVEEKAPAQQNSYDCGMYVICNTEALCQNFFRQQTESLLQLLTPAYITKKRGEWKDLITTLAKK
# Vero = Vero cell cytotoxicity, cytotoxicity control for flavivirus capping enzyme inhibitors (AID 588742); details: Chlorocebus sabaeus
# Genome polyprotein = Genome polyprotein (dengue virus type 2, UniProt P29990); assay: Dengue-2 NS5 methyltransferase inhibitors, primary screen, biochemical, confirmation dose response (AID 588689)
# [8] = intracellular Trypanosoma cruzi inhibitors in host cells – cell-based, plate reader, cherry-pick samples, set 3, dose response (AID 651818);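 also: compounds incubated with infected cells for about four days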
# Protein skinhead-1 = molecular target: T7, Protein skinhead-1 (Caenorhabditis elegans, UniProt P34707)
# T7 sequence (P34707 whole entry): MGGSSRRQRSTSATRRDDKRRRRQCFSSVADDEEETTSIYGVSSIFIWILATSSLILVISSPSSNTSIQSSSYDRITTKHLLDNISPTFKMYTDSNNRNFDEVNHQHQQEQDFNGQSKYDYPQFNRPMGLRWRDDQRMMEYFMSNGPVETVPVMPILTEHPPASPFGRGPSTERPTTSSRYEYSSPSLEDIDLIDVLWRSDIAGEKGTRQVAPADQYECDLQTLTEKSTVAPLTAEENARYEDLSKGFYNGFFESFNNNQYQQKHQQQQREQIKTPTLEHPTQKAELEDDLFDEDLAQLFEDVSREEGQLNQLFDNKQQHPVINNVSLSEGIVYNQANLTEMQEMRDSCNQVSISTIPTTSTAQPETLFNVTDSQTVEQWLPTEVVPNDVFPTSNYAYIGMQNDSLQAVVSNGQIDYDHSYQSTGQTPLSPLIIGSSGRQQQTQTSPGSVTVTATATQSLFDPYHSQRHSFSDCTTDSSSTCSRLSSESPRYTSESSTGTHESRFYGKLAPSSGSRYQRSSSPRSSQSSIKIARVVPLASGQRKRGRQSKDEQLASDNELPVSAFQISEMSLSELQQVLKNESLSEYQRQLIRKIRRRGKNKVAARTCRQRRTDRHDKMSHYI
# Genome polyprotein, sequence (P29990 2492-3391 limits assumed): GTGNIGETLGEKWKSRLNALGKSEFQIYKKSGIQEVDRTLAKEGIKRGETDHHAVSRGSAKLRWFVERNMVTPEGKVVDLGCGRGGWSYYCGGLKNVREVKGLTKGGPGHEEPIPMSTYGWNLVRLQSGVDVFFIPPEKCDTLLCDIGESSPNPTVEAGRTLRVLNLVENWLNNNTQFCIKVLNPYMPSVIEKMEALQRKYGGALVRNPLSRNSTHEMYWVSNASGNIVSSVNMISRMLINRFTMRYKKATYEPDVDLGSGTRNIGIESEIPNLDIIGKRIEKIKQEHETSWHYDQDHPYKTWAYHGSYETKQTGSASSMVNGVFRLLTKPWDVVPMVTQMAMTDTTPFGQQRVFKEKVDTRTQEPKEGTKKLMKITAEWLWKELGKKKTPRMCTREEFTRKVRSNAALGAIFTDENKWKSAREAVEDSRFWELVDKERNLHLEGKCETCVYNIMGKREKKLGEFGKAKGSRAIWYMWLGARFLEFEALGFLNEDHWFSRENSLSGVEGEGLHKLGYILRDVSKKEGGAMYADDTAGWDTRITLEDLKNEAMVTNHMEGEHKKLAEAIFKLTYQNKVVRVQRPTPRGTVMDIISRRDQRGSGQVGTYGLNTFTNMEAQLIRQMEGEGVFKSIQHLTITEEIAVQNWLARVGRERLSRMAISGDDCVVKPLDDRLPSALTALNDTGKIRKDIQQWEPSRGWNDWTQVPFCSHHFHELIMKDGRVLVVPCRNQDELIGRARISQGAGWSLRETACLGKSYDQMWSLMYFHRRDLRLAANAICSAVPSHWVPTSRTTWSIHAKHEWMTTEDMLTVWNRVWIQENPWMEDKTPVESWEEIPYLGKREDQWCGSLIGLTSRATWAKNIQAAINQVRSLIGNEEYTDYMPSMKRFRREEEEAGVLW
smiles,measurement,setting,value
Cc1ccc(C(=O)Nc2ccccc2C(=O)NC2CCCCC2)cc1S(=O)(=O)N1CCOCC1,IC50,[1],> 47.1 µM (inactive)
same,EC50,[2],> 53 µM (inactive)
Cc1cc(O)c(C2=Nc3ccccc3SC(c3ccc(Cl)cc3)C2)c(=O)o1 (stereo not given),EC50,[3],38.4 µM (active)
same,EC50,H4,107 µM (inconclusive)
same,EC50,[4],21 µM (active)
same,IC50,[1],> 47.1 µM (inactive)
same,EC50,[2],> 53 µM (inactive)
COc1ccc(C(=O)Nc2cccc(C(=O)O)c2)cc1S(=O)(=O)N1CCCC1,IC50,Caspase-3,46.9 µM (active)
same,IC50,[5],6.06 µM (active)
same,IC50,[6],22.1 µM (active)
same,IC50,[7],26.6 µM (active)
Cc1cccc(C(=O)N2c3ccccc3C(=O)OC2c2ccc3c(c2)OCO3)c1 (stereo not given),IC50,[1],< 0.368 µM (active)
same,EC50,[2],> 53 µM (inactive)
Cc1ccc(C(=O)Nc2cccc3cccnc23)cc1C,IC50,Caspase-3,15.6 µM (active)
same,IC50,[5],3.98 µM (active)
same,IC50,[6],14.5 µM (active)
same,IC50,[7],18.8 µM (active)
N#CC(=C1C=C(Br)C(=NO)C=C1Cl)c1ccc(Cl)cc1,CC50,Vero,> 40 µM (active)
same,IC50,Genome polyprotein,62.4 µM (active)
COC(=O)C1=C(C)N=C(C)/C(=C(/O)OC)C1/C=C/c1ccccc1 (stereo not given),IC50,[1],> 47.1 µM (inactive)
same,EC50,[2],> 53 µM (inactive)
C[C@@H]1CCCCO[C@@H](CN(C)Cc2ccc(C(F)(F)F)cc2)[C@@H](C)CN([C@H](C)CO)C(=O)c2cc(NS(=O)(=O)c3ccc(F)cc3)ccc2O1,AC50,[8],5.13 µM (active)
C[C@@H]1CN([C@H](C)CO)C(=O)Cc2cc(NC(=O)Nc3ccc(C(F)(F)F)cc3)ccc2O[C@@H]1CN(C)Cc1ccc(Cl)c(Cl)c1,AC50,[8],6.82 µM (active)
C[C@@H]1CN([C@H](C)CO)C(=O)c2cccc(NC(=O)c3nc4ccccc4s3)c2O[C@@H]1CN(C)Cc1ccc(C(F)(F)F)cc1,AC50,[8],5.42 µM (active)
C[C@@H]1CN([C@@H](C)CO)C(=O)c2cccc(NC(=O)Nc3ccccc3)c2O[C@H]1CN(C)Cc1ccc(Oc2ccccc2)cc1,AC50,[8],2.97 µM (active)
O=[N+]([O-])c1ccc(CSc2nc3ccccc3o2)cc1,IC50,Caspase-3,25.6 µM (active)
same,IC50,[5],7.69 µM (active)
same,IC50,[6],23.3 µM (active)
same,IC50,[7],16.2 µM (active)
same,IC50,Protein skinhead-1,> 100 µM (inactive)
